{"source": "patent US12589087B2", "about": "“Enantiomer selective action on neurotransmission” (The Board of Trustees of the Leland Stanford Junior …, priority 2021, dated 2026)", "key": {"[1]": {"biological_target": "T1, human glutaminase GLS1 (Homo sapiens, UniProt O94925)", "T1 construct": "purchased Sigma SRP0516", "T1 sequence (O94925 55-669)": "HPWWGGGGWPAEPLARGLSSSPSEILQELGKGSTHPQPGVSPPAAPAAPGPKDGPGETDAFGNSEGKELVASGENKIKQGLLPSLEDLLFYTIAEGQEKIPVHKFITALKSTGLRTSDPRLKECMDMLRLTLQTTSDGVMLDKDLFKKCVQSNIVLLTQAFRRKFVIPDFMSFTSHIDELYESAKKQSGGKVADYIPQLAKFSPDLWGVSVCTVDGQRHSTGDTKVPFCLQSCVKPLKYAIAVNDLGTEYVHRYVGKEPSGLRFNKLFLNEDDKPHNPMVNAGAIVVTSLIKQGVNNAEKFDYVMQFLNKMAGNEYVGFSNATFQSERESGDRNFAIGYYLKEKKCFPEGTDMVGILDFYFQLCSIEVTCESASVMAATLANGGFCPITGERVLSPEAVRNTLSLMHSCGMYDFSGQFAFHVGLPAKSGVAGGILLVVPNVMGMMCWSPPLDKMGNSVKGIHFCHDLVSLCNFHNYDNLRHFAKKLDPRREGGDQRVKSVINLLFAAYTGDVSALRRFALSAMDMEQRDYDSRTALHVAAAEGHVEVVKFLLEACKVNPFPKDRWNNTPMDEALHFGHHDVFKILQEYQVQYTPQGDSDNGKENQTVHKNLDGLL", "experiment": "Catalysis of 2MeGln hydrolysis by GLS1 glutaminase", "format": "biochemical", "conditions": "10 mM substrate", "method": "The procedure was adapted from an existing protocol. To a reaction mixture in a 1.5 mL microcentrifuge tube containing 10 mM rac-2MeGln or L-Gln-^13C2 in 100 mM phosphate pH 7.4 buffer made in 20% atom ^18O water, recombinant GLS1 (final concentration: 5 ng/mL) was added. The tubes were incubated in a preheated thermomixer at 37° C. and periodically shaken at 600 rpm (30 s on, 30 s off). 5 μL aliquots were collected in triplicate every 5 min and immediately diluted with 195 μL of cold 60% ACN containing 10 μM Glu-d5 and Gln-d5 as internal standards in a 96 well plate. After collecting all samples, the plate was shaken at 1000 rpm for 5 min at room temperature, and then stored at −80° C. Before analysis the plate was thawed and 10 μL aliquots of the extracted reaction mixtures were diluted with 190 μL of 90% acetonitrile.\nThe quantification of the newly formed 2MeGlu in the presence of the preexisting trace amounts was performed in the following way. Peak area ratio of Glu-^13C2 to Glu-^13C2^18O was calculated in all samples containing Glu-^13C2. The mean ratio value was then applied to calculate the hypothetical peak area of the newly formed 2MeGlu based on the directly measured 2MeGlu-^18O peak area. The ratio of the newly formed 2MeGlu peak area and the total 2MeGlu peak area was applied to calculate the concentration of the newly formed 2MeGlu from the total 2MeGlu concentration determined directly using the calibration curve."}, "[2]": {"biological_target": "T2, GluN2A (Homo sapiens, UniProt Q12879)", "T2 construct": "host or cells: HEK 293 (stably expressing)", "T2 sequence (Q12879 23-1464, other chains not shown)": "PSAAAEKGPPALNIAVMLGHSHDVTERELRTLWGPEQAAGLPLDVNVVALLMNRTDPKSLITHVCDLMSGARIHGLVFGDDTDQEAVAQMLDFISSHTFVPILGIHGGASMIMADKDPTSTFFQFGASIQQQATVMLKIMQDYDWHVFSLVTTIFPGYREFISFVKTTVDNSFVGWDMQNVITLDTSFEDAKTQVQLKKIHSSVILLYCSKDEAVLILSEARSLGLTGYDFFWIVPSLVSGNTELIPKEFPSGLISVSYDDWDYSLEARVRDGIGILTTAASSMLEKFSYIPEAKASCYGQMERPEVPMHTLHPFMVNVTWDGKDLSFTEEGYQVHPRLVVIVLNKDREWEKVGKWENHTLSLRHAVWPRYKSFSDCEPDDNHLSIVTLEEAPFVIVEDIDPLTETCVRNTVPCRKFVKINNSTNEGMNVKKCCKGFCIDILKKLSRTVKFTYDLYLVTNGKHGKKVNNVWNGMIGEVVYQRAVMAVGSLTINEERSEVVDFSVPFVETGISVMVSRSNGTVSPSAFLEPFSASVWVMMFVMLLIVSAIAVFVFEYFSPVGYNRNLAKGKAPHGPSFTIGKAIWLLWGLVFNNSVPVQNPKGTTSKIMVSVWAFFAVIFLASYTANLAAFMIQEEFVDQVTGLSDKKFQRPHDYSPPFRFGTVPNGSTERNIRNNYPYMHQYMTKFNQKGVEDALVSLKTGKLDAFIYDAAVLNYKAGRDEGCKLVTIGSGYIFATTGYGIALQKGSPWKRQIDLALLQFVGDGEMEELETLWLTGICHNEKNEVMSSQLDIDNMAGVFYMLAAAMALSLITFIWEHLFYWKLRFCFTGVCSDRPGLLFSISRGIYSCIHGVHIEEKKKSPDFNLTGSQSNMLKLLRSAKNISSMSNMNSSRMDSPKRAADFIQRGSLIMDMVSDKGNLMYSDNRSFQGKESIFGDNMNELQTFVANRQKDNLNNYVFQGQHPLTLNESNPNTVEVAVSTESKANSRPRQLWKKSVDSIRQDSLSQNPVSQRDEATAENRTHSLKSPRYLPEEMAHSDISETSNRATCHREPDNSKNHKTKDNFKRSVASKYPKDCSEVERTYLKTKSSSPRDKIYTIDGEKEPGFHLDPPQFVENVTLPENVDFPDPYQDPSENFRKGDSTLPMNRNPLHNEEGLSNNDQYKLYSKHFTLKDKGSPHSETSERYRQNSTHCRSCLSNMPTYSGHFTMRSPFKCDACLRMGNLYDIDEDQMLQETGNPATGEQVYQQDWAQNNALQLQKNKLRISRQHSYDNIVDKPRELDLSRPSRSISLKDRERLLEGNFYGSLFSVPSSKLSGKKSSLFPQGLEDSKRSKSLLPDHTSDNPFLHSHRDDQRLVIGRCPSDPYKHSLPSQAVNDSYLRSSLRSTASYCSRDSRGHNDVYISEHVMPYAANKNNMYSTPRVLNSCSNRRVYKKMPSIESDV", "experiment": "FLIPR functional assay, HEK 293 cells (agonist/PAM/antagonist)", "format": "cell-based", "conditions": "top concentration 100 μM, read-out: IC50, functional antagonist receptor assay", "method": "Functional assays of all GABAA, NMDA (GluN2A-GluN2D) and AMPA (GluA2) receptor subunits were performed by SB Drug Discovery as a part of their CNS discovery panel using FLIPR technology. Briefly, receptor-expressing HEK 293 cell lines were incubated in a red membrane potential dye in HEPES:HBSS pH 7.4 buffer and the fluorescence (λex: 488, λex: 510-570) was monitored over time as the test compounds and/or reference compounds were added to the solution. In agonist assay, only test compounds were added. In positive allosteric modulator assay, cells were preincubated with test compounds and then low concentration (approximately EC20) of an appropriate agonist was added. In antagonist assay, cells were preincubated with test compounds and then high concentration (approximately EC80) of an appropriate agonist was added. For GABAA assays, GABA was used as the agonist, picrotoxin was used as the reference antagonist and allopregnanolone was used as the reference positive allosteric modulator (PAM). For NMDA assays, a mixture of glutamate, glycine and CaCl2 was used as the agonist, MK801 was the reference antagonist and pregnenolone sulfate or GNE 9278 were used as reference PAMs. For AMPA assays, glutamate was used as the agonist, CNQX was the reference antagonist and cyclothiazide was used as the reference PAM. All compounds were tested at 7 concentration points in triplicate and EC50/IC50 was determined where applicable. Functional GABAB assay was performed by Eurofins Discovery (Cerep) using Ca^2+-dependent fluorimetry in RBL cells expressing human GABAB (B1/B2) receptor. All compounds were tested at a single concentration of 100 uM in triplicate.\nAll receptor assays were performed exactly as described in Example 1. Functional assays of all GABAA, NMDA (GluN2A-GluN2D) and AMPA (GluA2) receptor subunits were performed by SB Drug Discovery as a part of their CNS discovery panel using FLIPR technology. All compounds were tested at 7 concentrations in triplicate and EC50/IC50 was determined where applicable. Functional GABAB assay was performed by Eurofins Discovery (Cerep) using Ca^2+-dependent fluorimetry in RBL cells expressing human GABAB (B1/B2) receptor. All compounds were tested at a single concentration of 100 uM in triplicate. Nonspecific AMPA, kainate and NMDA binding assays were performed by Eurofins Discovery (Cerep) using rat cerebral cortex membranes and radiolabeled [^3H]AMPA, [^3H]kainic acid and [^3H]CGP 39653, respectively. All compounds were tested at a single concentration of 100 uM in triplicate. mGluR1, mGluR2, mGluR5 and GABAB binding assays were performed by Eurofins Discovery. All compounds were tested at a single concentration of 100 uM in triplicate."}, "[3]": {"system": "MPTP model of PD", "experiment": "MPTP model of PD, fine motor kinematic score", "format": "in vivo, mouse", "conditions": "50 mg/kg/d IP, days −5 to 14", "method": "Five groups of mice were treated with 40 mg/kg/d MPTP IP on days 1 and 2 and two concentrations of two test agents IP from days −5 to day 14 (FIG. 22). One group received vehicle, two groups received 5 or 50 mg/kg/d S-2MeGlu, and two groups received 5 or 50 mg/kg/d R-4APA. […] The high-precision fine motor kinematic protocol quantifies over 100 indices of gait and balance and integrates them into an overall kinematic score; higher score indicates greater impairment. […] Mice were sacrificed on day 15 and striatal dopamine as well as its major metabolites were quantified by HPLC with electrochemical detection."}, "[4]": {"system": "Line 61 mice", "experiment": "Transgenic α-synuclein mouse model, tapered beam test", "format": "in vivo", "excerpt": "Line 61 mice overexpress human α-synuclein under control of the mouse Thy-1 promoter. The transgene is X-linked so females have variable transgene expression; for this reason, we focused on male mice. […] Categorical data from the tapered beam task were unblinded and analyzed by X square test (P<0.005)."}}, "note": "pIC50: −log10 of the molar value.", "data": [{"compound": "CC(N)(CCC(N)=O)C(=O)O", "note": "(racemic) [rac-2MeGln, rac-2-methylglutamine]", "values": [{"measurement": "apparent GLS1 reaction rate, lower compared to that of Gln", "setting": "[1]", "result": "approximately 35 fold"}, {"measurement": "apparent reaction rate of GLS1 hydrolysis", "setting": "[1]; 5 ng/mL enzyme, phosphate pH 7.4", "result": 1.9, "unit": "µM/min"}]}, {"compound": "C[C@@](N)(CCC(=O)O)C(=O)O", "note": "[(R)-2MeGlu, (R)-2-methylglutamic acid]", "values": [{"measurement": "pIC50", "setting": "[2]", "result": 4.16}]}, {"compound": "C[C@](N)(CCC(=O)O)C(=O)O", "note": "[(S)-2MeGlu, (S)-2-methylglutamic acid]", "values": [{"measurement": "rescue of motor deficit from MPTP (overall kinematic score)", "setting": "[3]", "result": "significantly rescued the motor deficit from MPTP"}, {"measurement": "body weight or deaths", "setting": "[4]; 5 or 50 mg/kg/d IP, seven days", "result": "no change in body weight or deaths"}, {"measurement": "motor function, tapered beam", "setting": "[4]; 7 days IP, high dose (50 mg/kg/d) S-2MeGlu, either dose (5 or 50 mg/kg/d) R-4APA", "result": "improved motor function similar to WT mice"}, {"measurement": "α-synuclein accumulation in brain by immunohistochemistry vs vehicle", "setting": "[4]; Line 61 mice", "result": "no significant change"}]}]}
